This note sets out measurements from patent publication EP4721741A1, “PHARMACEUTICAL COMPOSITION, TOPICAL PREPARATION, AND PREPARATION METHOD THEREFOR AND USE THEREOF” (Lynk Pharmaceuticals Co. Ltd., priority 2023, dated 2024).

This data set can be described thus: Pharmacokinetic (PK) study after topical application: plasma, stratum corneum, epidermis, dermis. It counts as in vivo, Bama miniature pigs. The method, then: Twenty-four (12 per sex) male and female Bama miniature pigs were divided into 5 groups. The ointment was applied to an estimated 10% of the animal's body surface area.
Animals in group 1 and group 2 received a single topical application of sample 2A and sample 2B, respectively. Plasma, stratum corneum, epidermis, and dermis samples were collected before administration (0 hour, plasma only) and at 0.5, 1, 4, 8, 12, and 24 hours after administration.
Group 3 animals were topically administered ointment sample 2B once daily for 7 consecutive days. Plasma samples were collected on day 1 and day 7 before administration (0) and 0.5, 1, 4, 8, 12, and 24 hours after administration; and on days 3, 4, 5, and 6 before administration (0). […]
Group 5 animals received a single topical application of sample 3a (administered at 25 µL/m^2 with a concentration of 6 mg/mL), and blood and skin samples were collected before administration (0) and at 0.5, 1, 3, and 6 hours after administration. […] The homogenized samples were extracted using three volumes of acetonitrile and quantified against a standard curve utilizing an LC-MS/MS system.
The concentrations of the active pharmaceutical ingredient in plasma, stratum corneum, epidermis, and dermis samples were determined using a high-performance liquid chromatography-[…] (LC-MS/MS) method.

As for `Cc1cnc(Nc2cnn(C3CC(C)(C)OC(C)(C)C3)c2)nc1-c1ccc(C(=O)NCC#N)cc1` [active pharmaceutical ingredient], the “accumulation: exposure levels (AUC0-last and Cmax) in the stratum corneum, epidermis, and dermis” value (7 consecutive days of once-daily topical application of the ointment at 12 µg/cm^2, both sexes) is “no accumulation”. Moreover, the “Concentrations in plasma samples” value (all plasma samples, topical application, Bama miniature pigs) is recorded as “below the lower limit of quantification”.
